From patent US20240025908A1, “COMPOUND USED AS KINASE INHIBITOR AND USE THEREOF” (TYK MEDICINES, INC., priority 2020, published 2024)
Where two headings read alike, the source gives them in different places.

Key:
[1] = target: TRKA (Homo sapiens (Human), UniProt P04629); assay: Radio-tagged HotSpot kinase assay, TRKA; format: biochemical
Protocol: (§1) Inhibition of protein kinase activity by compounds was carried out on the Radio-tagged HotSpot kinase experimental platform of Reaction Biology Corporation. Fresh reaction solution (20 mM TIEPESpH 7.5, 10 mM MgCl2, 1 mM EGTA, 0.02% Brij35, 0.02 mg/ml BSA, 0.1 mM Na3VO4, 2 mM DTT, […]) containing corresponding substrates was prepared, cofactor and kinase to be tested were added into the above solution and mixed gently. Echo550 pipetting system was used to add the test compound DMSO solution to each well (the blank control group was added with the corresponding volume of DMSO), then 33P-ATP (with a final specific activity of 0.01 μCi/μL) was added to start the reaction. The reaction solution was incubated at room temperature for 120 minutes. Transferred the incubated reaction solution to P81 ion exchange chromatographic paper (Whatman #3698-915), eluted with […] phosphoric acid solution, and the amount of radioactive phosphorylated substrate remaining on the chromatographic paper was detected.

[2] = target: ROS1 (Homo sapiens (Human), UniProt P08922); assay: Radio-tagged HotSpot kinase assay, ROS1; format: biochemical
Sequence of ROS1 (P08922 28-2347): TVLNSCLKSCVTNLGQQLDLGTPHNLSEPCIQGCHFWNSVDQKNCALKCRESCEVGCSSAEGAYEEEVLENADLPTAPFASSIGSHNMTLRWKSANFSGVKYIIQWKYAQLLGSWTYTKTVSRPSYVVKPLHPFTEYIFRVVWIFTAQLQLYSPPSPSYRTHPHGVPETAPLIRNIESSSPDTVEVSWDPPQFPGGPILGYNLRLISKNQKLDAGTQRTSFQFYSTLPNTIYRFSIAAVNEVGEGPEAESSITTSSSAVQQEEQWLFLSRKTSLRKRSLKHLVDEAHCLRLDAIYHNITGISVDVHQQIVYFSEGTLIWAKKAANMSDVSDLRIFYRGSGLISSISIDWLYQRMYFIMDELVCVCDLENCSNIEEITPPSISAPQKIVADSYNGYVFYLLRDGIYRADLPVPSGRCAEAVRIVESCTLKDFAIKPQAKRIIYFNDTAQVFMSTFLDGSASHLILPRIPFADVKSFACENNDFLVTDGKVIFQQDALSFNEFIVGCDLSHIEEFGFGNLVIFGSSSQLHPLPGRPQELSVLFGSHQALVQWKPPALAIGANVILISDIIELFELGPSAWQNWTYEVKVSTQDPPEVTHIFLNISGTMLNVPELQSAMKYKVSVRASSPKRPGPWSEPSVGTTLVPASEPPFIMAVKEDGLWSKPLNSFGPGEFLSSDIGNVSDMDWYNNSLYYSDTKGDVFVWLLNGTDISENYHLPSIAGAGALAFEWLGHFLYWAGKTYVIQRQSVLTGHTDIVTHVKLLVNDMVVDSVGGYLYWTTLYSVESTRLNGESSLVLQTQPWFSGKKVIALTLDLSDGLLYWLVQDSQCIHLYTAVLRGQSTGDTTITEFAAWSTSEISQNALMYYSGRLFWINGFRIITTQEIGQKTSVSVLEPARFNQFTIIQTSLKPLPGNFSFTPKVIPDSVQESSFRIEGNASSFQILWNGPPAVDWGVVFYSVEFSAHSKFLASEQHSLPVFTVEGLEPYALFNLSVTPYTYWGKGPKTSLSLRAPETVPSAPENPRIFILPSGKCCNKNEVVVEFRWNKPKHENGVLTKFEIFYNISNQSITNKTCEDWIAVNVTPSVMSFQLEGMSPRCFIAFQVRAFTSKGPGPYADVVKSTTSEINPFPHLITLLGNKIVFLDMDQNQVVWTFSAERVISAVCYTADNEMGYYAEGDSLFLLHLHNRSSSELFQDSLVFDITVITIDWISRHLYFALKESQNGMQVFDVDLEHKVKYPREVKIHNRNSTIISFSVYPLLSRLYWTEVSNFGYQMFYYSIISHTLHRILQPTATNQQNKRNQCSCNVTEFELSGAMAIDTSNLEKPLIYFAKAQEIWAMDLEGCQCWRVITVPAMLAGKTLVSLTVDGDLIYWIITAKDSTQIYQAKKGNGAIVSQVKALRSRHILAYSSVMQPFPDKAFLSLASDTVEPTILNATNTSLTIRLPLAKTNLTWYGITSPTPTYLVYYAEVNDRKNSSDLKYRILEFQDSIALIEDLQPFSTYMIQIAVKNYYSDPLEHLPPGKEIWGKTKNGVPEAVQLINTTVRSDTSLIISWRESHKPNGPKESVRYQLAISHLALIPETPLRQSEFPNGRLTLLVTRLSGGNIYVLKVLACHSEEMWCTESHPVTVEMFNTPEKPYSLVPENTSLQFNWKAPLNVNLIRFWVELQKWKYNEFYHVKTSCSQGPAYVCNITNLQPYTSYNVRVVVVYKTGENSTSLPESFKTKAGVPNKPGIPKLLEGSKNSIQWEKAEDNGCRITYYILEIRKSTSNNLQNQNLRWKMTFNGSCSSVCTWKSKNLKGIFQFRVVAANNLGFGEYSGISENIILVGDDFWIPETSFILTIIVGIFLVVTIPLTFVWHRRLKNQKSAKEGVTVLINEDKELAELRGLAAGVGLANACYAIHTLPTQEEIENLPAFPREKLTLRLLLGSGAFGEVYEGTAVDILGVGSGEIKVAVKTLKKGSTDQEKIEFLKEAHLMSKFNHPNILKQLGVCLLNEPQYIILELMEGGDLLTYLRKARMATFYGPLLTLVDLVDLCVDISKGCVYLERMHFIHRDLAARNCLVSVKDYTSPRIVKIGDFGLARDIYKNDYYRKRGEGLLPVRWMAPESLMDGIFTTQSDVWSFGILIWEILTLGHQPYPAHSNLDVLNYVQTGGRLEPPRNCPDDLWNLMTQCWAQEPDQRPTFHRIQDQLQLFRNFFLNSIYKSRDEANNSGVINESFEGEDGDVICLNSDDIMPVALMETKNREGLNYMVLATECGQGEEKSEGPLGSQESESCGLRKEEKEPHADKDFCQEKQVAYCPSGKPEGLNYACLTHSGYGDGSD
Protocol: as §1

[3] = target: ALK (Homo sapiens (Human), UniProt Q9UM73); assay: Radio-tagged HotSpot kinase assay, ALK; format: biochemical
Sequence of ALK (Q9UM73 19-1620): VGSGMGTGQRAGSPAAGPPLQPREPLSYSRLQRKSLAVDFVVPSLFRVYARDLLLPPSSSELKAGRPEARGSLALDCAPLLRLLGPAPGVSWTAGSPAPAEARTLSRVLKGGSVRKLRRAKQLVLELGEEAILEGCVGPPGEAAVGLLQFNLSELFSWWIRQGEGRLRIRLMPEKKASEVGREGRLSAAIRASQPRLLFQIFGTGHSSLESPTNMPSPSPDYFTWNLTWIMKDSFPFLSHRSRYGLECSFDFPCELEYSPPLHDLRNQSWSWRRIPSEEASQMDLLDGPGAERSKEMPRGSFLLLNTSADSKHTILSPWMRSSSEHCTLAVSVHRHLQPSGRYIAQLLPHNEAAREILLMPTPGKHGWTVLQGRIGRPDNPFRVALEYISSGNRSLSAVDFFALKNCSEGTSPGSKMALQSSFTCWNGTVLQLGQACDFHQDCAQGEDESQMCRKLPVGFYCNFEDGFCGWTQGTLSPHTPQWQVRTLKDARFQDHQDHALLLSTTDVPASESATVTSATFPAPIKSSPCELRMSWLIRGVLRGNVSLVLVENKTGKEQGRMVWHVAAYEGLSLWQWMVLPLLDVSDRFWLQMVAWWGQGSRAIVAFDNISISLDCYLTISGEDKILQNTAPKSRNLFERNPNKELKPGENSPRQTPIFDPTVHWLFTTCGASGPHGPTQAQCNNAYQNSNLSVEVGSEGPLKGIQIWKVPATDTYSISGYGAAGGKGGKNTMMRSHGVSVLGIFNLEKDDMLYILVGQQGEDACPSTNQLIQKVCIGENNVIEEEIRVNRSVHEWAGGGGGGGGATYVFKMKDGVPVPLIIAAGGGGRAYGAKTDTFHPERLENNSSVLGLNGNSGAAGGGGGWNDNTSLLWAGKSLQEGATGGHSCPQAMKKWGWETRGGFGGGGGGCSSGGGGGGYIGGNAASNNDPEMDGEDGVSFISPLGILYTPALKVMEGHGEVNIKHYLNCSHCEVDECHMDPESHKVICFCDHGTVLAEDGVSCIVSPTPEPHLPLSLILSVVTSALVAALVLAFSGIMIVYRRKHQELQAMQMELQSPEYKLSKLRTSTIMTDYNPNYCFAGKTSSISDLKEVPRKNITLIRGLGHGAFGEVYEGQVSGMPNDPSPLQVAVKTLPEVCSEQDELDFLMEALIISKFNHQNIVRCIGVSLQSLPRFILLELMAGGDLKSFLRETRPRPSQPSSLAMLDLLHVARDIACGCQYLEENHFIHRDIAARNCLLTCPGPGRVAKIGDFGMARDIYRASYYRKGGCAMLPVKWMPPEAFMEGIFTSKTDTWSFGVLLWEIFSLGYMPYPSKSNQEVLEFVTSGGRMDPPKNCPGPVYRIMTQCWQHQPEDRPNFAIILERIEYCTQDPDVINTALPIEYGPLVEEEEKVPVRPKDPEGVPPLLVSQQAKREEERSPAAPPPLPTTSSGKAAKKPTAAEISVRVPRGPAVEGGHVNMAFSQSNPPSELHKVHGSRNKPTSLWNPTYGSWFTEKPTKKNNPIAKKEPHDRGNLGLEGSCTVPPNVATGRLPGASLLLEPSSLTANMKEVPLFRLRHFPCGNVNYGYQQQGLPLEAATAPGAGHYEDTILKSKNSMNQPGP
Protocol: as §1

[4] = target: ALK (G1202R) (Homo sapiens (Human), UniProt Q9UM73, G1202R); assay: Radio-tagged HotSpot kinase assay, ALK (G1202R); format: biochemical
Sequence of ALK (G1202R) (Q9UM73 19-1620 G1202R): as the sequence (Q9UM73 19-1620) above, with G1184R counted along it
Protocol: as §1

[5] = target: ROS1 (G2032R) (Homo sapiens (Human), UniProt P08922, G2032R); assay: Radio-tagged HotSpot kinase assay, ROS1 (G2032R); format: biochemical
Sequence of ROS1 (G2032R) (P08922 28-2347 G2032R): as the sequence (P08922 28-2347) above, with G2005R counted along it
Protocol: as §1

[6] = target: TRKA (G677C) (Homo sapiens, UniProt P04629, G667C); assay: Radio-tagged HotSpot kinase assay, TRKA (G677C); format: biochemical
Sequence of TRKA (G677C) (P04629 33-796 G667C limits assumed): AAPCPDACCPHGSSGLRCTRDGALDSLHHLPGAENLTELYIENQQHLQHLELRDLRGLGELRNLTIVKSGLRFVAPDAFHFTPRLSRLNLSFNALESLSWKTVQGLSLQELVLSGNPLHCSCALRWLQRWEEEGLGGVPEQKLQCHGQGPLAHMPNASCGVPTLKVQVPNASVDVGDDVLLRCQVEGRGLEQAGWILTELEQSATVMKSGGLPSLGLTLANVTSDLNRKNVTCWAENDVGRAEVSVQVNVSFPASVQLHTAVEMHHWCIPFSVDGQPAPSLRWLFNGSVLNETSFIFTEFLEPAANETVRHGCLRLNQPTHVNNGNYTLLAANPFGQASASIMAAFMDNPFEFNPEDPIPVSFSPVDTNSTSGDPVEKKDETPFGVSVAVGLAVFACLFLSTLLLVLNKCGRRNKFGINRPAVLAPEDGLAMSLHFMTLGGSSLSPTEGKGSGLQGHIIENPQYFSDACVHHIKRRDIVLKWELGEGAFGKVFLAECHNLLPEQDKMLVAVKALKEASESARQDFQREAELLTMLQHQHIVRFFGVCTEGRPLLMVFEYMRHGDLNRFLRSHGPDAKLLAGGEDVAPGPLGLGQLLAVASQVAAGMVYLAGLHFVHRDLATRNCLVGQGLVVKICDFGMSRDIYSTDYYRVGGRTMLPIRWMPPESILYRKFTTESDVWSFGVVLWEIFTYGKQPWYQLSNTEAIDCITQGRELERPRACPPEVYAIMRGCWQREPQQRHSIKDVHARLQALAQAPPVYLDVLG
Protocol: as §1

[7] = test system: Ba/F3-CD74-ROS1-G2032R; assay: Inhibition of cell proliferation (CellTiter-Glo), Ba/F3-CD74-ROS1-G2032R; format: cell-based; conditions: 72 hours
Protocol: (§2) The experiment of inhibiting cell proliferation by compounds was carried out in Hefei Zhongkeprecedo Biomedical Technology Co., Ltd. The Ba/F3 engineered cell line stably transfected with different kinase genes was recovered with RPMI 1640 medium (Biological Industries, Israel)+10% fetal bovine serum (Biological Industries, Israel)+1% double antibody (Penicillin Streptomycin solution, Coring, USA) and cultivated two generations. The logarithmic growth phase cell suspension was taken, and 2000 cells/well were inoculated on 96-well white cell culture plate (Corning 3917, NY, USA) with a volume of 95 μL per well. 5 μL of 20×DMSO solution of the compound to be tested was added into the culture plate containing 95 μL of cell suspension. The blank control group was added with corresponding volume of DMSO, mixed well, and incubated in a 5% CO2 incubator at 37° C. for 72 hours. CellTiter-Glo was used to detect cell viability.

[8] = test system: Ba/F3-LMNA-NTRK1-G595R; assay: Inhibition of cell proliferation (CellTiter-Glo), Ba/F3-LMNA-NTRK1-G595R; format: cell-based; conditions: 72 hours
Protocol: as §2

[9] = test system: Ba/F3-TEL-ALK-G1202R; assay: Inhibition of cell proliferation (CellTiter-Glo), Ba/F3-TEL-ALK-G1202R; format: cell-based; conditions: 72 hours
Protocol: as §2

[10] = test system: Ba/F3-CD74-ROS1-G2032R cells; assay: In vivo efficacy study, subcutaneous Ba/F3-CD74-ROS1-G2032R tumor; design: species or system BALB/c nude mice; conditions: 20 mg/kg P.O. BID × 2 weeks
Protocol: Cell culture: Ba/F3-CD74-ROS1-G2032R cell line was cultured with 1640 medium (Biological Industries)+10% fetal bovine serum (BI)+1% double antibody (Penicillin Streptomycin solution, Corning, USA) at 37° C. with 5% CO2. Two passages were performed for one week. When the cell saturation was 80%-90% and the number reached the required level, the cells were collected, counted and inoculated.
Animals: BALB/c nude mice, female, 6-8 weeks of age, weighing 15-20 g. A total of 6 mice were required, provided by Beijing Vital River Laboratory Animal Technology Co., Ltd.
Tumor inoculation: 0.2 ml (2×10^6) Ba/F3-CD74-ROS1-G2032R cells (plus stromal gel, volume ratio 1:1) were inoculated subcutaneously on the right posterior dorsum of each mouse, and group dosing was started when the average tumor volume reached about 150-200 mm^3.
Experimental index: Tumor volume and body weight were measured twice a week. Tumor volume was measured by vernier calipers with the formula TV=0.5 a×b2, wherein a is the long diameter of the tumor and b is the short diameter of the tumor.

[11] = read-out: TRKA (G677C) (IC50/nM)

Sequence of TRKA (P04629 33-796): as the sequence (P04629 33-796 G667C limits assumed) above, with C635G counted along it

Row | Compound | IC50 [1] [nM] | IC50 [2] [nM] | IC50 [3] [nM] | IC50 [4] [nM] | IC50 [5] [nM] | IC50 [6, 11] [nM] | IC50 [7] [nM] | IC50 [8] [nM] | IC50 [9] [nM] | IC50 [6] [nM] | Tumor Volume ([10]; 0 days) [mm^3] | Tumor Volume ([10]; 4 days) [mm^3] | Tumor Volume ([10]; 7 days) [mm^3] | Tumor Volume ([10]; 11 days) [mm^3] | Tumor Volume ([10]; 14 days) [mm^3]
1 | COc1ccc(F)cc1[C@@H](C)Nc1ccn2ncc(OC3=NC(C)(C)CN3)c2n1 [Example 14] | 0.5 to 5 | 0.5 to 5 | 50 to 500 | 50 to 500 | 5 to 50 | 5 to 50 | – | – | – | – | – | – | – | – | –
2 | C[C@@H](Nc1ccn2ncc(C3=NOCCN3)c2n1)c1cc(F)cc(F)c1F [Example 3] | < 0.5 | < 0.5 | 0.5 to 5 | 0.5 to 5 | < 0.5 | < 0.5 | – | – | – | – | – | – | – | – | –
3 | C[C@@H](Nc1ccn2ncc(NC3=NC(C)(C)CO3)c2n1)c1cc(F)cc(F)c1F [Example 2] | 0.5 to 5 | 0.5 to 5 | 0.5 to 5 | 5 to 50 | 0.5 to 5 | 0.5 to 5 | – | – | – | – | – | – | – | – | –
4 | CCOc1ncc(F)cc1[C@@H](C)Nc1ccn2ncc(C3=NOCCN3)c2n1 [Example 22] | < 0.5 | < 0.5 | 0.5 to 5 | 5 to 50 | 0.5 to 5 | 0.5 to 5 | – | – | – | – | – | – | – | – | –
5 | COc1ccc(F)cc1[C@@H](C)Nc1ccn2ncc(NC3=NC(C)(C)CN3)c2n1 [Example 12] | 0.5 to 5 | 0.5 to 5 | 5 to 50 | 5 to 50 | 5 to 50 | 5 to 50 | – | – | – | – | – | – | – | – | –
6 | C[C@@H](Nc1ccn2ncc(C3=NC(=O)C(C)(C)N3)c2n1)c1cc(F)ccc1OC(F)F [Example 6] | < 0.5 | < 0.5 | 0.5 to 5 | 5 to 50 | < 0.5 | < 0.5 | 24.1 | 13.4 | 110 | – | – | – | – | – | –
7 | C[C@@H](Nc1ccn2ncc(C3=NOCCN3)c2n1)c1cc(F)ccc1C(F)F [Example 28] | 0.5 to 5 | 0.5 to 5 | 5 to 50 | 50 to 500 | 50 to 500 | 50 to 500 | – | – | – | – | – | – | – | – | –
8 | C[C@@H](Nc1ccn2ncc(C3=NC(=O)C(C)(C)N3)c2n1)c1cc(F)cc(F)c1F [Example 8] | < 0.5 | < 0.5 | 0.5 to 5 | 5 to 50 | < 0.5 | < 0.5 | – | – | – | – | – | – | – | – | –
9 | COc1c(F)cc(F)cc1[C@@H](C)Nc1ccn2ncc(C3=NC(=O)C(C)(C)N3)c2n1 [Example 20] | < 0.5 | < 0.5 | 0.5 to 5 | 5 to 50 | 0.5 to 5 | 0.5 to 5 | – | – | – | – | – | – | – | – | –
10 | COc1c(F)cc(F)cc1[C@@H](C)Nc1ccn2ncc(NC3=NC(C)(C)CO3)c2n1 [Example 18] | 0.5 to 5 | 0.5 to 5 | 5 to 50 | 50 to 500 | 5 to 50 | 5 to 50 | – | – | – | – | – | – | – | – | –
11 | C[C@@H](Nc1ccn2ncc(C3=NOCCN3)c2n1)c1cc(F)ccc1OC(F)(F)F [Example 26] | < 0.5 | < 0.5 | 0.5 to 5 | 5 to 50 | 0.5 to 5 | – | 35.2 | 11.2 | 100 | 0.5 to 5 | – | – | – | – | –
12 | C[C@@H](Nc1ccn2ncc(C3=NOCC(C)(C)N3)c2n1)c1cc(F)ccc1OC(F)F [Example 16] | 0.5 to 5 | 0.5 to 5 | 5 to 50 | 50 to 500 | 5 to 50 | 5 to 50 | – | – | – | – | – | – | – | – | –
13 | C[C@@H](Nc1ccn2ncc(C3=NOCC(C)(C)N3)c2n1)c1cc(F)cc(F)c1F [Example 4] | < 0.5 | < 0.5 | 0.5 to 5 | 5 to 50 | 0.5 to 5 | 0.5 to 5 | – | – | – | – | 167.31 | 216.42 | 292.24 | 375.67 | 688.91
